# Earlier results in US9814239B2, “Antimicrobial complexes” (priority 2010, dated 2017).
# How the values were obtained:
# Bacillus subtilis = details: Gram Positive
# Staphylococcus aureus = details: Gram Positive
# Streptococcus faecalis = details: Gram Positive
# Escherichia coli = details: Gram Negative
# Proteus vulgaris = details: Gram Negative
# Pseudomonas aeruginosa = details: Gram Negative
# Salmonella typhimurium = details: Gram Negative
# Aspergillus niger = details: Molds
# Endomycopsis albicans = details: Yeasts
# Saccharomyces cerevisiae = details: Amoeba (so in the source)
structure (smiles),measurement,setting,value
"[O-][n+]1ccccc1S [Sodium Omadine, sodium omadine]",Bactericide concentration (ppm),Bacillus subtilis,0.5 ppm
same,Bactericide concentration (ppm),Staphylococcus aureus,16 ppm
same,Bactericide concentration (ppm),Streptococcus faecalis,2 ppm
same,Bactericide concentration (ppm),Escherichia coli,16 ppm
same,Bactericide concentration (ppm),Proteus vulgaris,8 ppm
same,Bactericide concentration (ppm),Pseudomonas aeruginosa,128 ppm
same,Bactericide concentration (ppm),Salmonella typhimurium,16 ppm
same,Fungicide concentration (ppm),Aspergillus niger,<0.25 ppm
same,Fungicide concentration (ppm),Endomycopsis albicans,<0.25 ppm
same,Fungicide concentration (ppm),Saccharomyces cerevisiae,<0.25 ppm
